Data taken from ChEMBL document CHEMBL3632500, “Developing structure-activity relationships from an HTS hit for inhibition of the Cks1-Skp2 protein-protein interaction” (Bioorg Med Chem Lett, 2015).
Active and inactive are the calls of the source. No cut-off for these calls is given here.

What was measured:
[1] = tested on: A549; experiment: Antiproliferative activity against human A549 cells after 6 days; type: functional; details: A549, 144 h
[2] = tested on: A549; experiment: Antiproliferative activity against human A549 cells after 2 days; type: functional, cell-based
[3] = Antiproliferative activity against human HT1080 cells after 6 days; type: functional; details: HT-1080, 144 h
[4] = tested on: NCI-H1299; experiment: Antiproliferative activity against human H1299 cells after 2 days; type: functional, cell-based
[5] = target: T1, Cyclin-dependent kinases regulatory subunit 1/S-phase kinase-associated protein 2 (Homo sapiens, UniProt P61024+Q13309); experiment: Inhibition of Cks1-Skp2 (unknown origin) interaction assessed as increase in p27-GFP level by ELISA; type: protein assay
Target sequence in this assay (P61024 2-79 limits assumed): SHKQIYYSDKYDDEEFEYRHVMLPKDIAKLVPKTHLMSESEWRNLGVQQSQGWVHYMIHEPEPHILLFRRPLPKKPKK
Target sequence in this assay (Q13309 whole entry partner): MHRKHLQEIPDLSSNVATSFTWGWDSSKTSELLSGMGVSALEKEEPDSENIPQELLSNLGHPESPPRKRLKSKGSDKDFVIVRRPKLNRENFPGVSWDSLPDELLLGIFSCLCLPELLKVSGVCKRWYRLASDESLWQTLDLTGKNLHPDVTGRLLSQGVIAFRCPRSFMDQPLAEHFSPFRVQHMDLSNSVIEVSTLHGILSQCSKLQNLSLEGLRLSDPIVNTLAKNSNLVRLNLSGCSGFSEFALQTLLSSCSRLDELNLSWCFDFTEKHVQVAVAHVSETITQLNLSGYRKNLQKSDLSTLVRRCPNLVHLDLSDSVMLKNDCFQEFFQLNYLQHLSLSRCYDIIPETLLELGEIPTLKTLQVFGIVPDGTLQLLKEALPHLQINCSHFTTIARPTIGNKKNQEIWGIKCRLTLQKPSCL

[6] = target: T1, Cyclin-dependent kinases regulatory subunit 1/S-phase kinase-associated protein 2; experiment: Inhibition of Cks1-Skp2 (unknown origin) interaction assessed as increase in p27-GFP level by western blot analysis; type: protein assay
Target sequence in this assay (P61024 2-79 limits assumed): as the sequence (P61024 2-79 limits assumed) above
Target sequence in this assay (Q13309 whole entry partner): as the sequence (Q13309 whole entry partner) above

[7] = target: T1, Cyclin-dependent kinases regulatory subunit 1/S-phase kinase-associated protein 2; experiment: Inhibition of Cks1-Skp2 (unknown origin) interaction after 30 mins by ELISA; type: protein assay
[8] = Homo sapiens, A549, 48 h, read-out: IC50
[9] = Homo sapiens, NCI-H1299, 48 h, read-out: IC50

Compound	GI50 [1] [µM]	GI50 [3] [µM]	Activity [5]	Activity [6]	IC50 [2, 8] [µM]	IC50 [4, 9] [µM]	also measured
Cc1ccc(S(=O)(=O)Nc2cc(Oc3cccc(C#N)c3)cc3cccnc23)cc1	6.48	6.83	–	–	–	–	IC50 ([2]; a549): Not Active; IC50 ([4]; nci-h1299): Not Active
CS(=O)(=O)Nc1ccc(-c2cccnc2)c2cccnc12	–	–	inactive	inactive	–	–	–
COc1ccc(S(=O)(=O)Nc2ccc(-c3cccnc3)c3cccnc23)cc1	1.24	0.44	Active	Active	7.94	5.31	IC50 ([7]; read-out: IC50): 0.58 µM
O=S(=O)(Nc1ccc(-c2ccccc2)c2cccnc12)C1CC1	–	–	inactive	inactive	–	–	–
Cc1ccc(S(=O)(=O)Nc2ccc(-c3cccnc3)c3cccnc23)cc1	6.02	4.22	Active	Active	7.13	6.95	–
Cc1ccc(S(=O)(=O)Nc2cccc3cccnc23)cc1	2.48	2.46	Active	Active	7.54	5.35	IC50 ([7]; read-out: IC50): 2.18 µM
O=S(=O)(Nc1ccc(-c2cccnc2)c2cccnc12)c1cccc(C(F)(F)F)c1	–	–	Active	Active	5.91	3.9	–
Cc1ccc(S(=O)(=O)Nc2ccc(N3CCC(Cc4ccccc4)CC3)c3cccnc23)cc1	–	–	inactive	inactive	–	–	IC50 [7]: Not Active
Cc1ccc(S(=O)(=O)Nc2cc(Oc3cc(F)cc(F)c3)cc3cccnc23)cc1	4.11	0.08	Active	Active	2.94	2.46	–
O=S(=O)(Nc1ccc(-c2ccncc2)c2cccnc12)C1CC1	–	–	inactive	inactive	–	–	–
CS(=O)(=O)Nc1ccc(-c2ccncc2)c2cccnc12	–	–	inactive	inactive	–	–	IC50 [7]: Not Active
O=S(=O)(Nc1ccc(-c2ccccc2)c2cccnc12)c1cccc(C(F)(F)F)c1	–	–	Active	Active	–	–	–
Cc1ccc(S(=O)(=O)Nc2ccc(-c3ccco3)c3cccnc23)cc1	26	9.78	Active	Active	–	–	IC50 ([2]; a549): Not Active; IC50 ([4]; nci-h1299): Not Active
Cc1ccc(C(=O)Nc2ccc(Br)c3cccnc23)cc1	–	–	–	–	–	–	inhibition [7]: inactive
O=S(=O)(Nc1ccc(-c2ccncc2)c2cccnc12)c1cccnc1	5.88	1.07	inactive	inactive	11.8	9.48	–
Cc1ccc(S(=O)(=O)Nc2ccc(-c3ccccc3)c3ccncc23)cc1	–	–	–	–	–	–	inhibition [7]: inactive

Compound	GI50 [1] [µM]	GI50 [3] [µM]	Activity [5]	Activity [6]	IC50 [2, 8] [µM]	IC50 [4, 9] [µM]	also measured
Cc1ccc(NS(=O)(=O)c2ccc(-c3ccccc3)c3cccnc23)cc1	–	–	–	–	–	–	inhibition [7]: inactive
O=S(=O)(Nc1ccc(-c2ccccc2)c2cccnc12)c1cccnc1	–	–	Active	Active	–	–	–
Cc1ccc(S(=O)(=O)Nc2ccc(N3CCN(C)CC3)c3cccnc23)cc1	–	–	inactive	inactive	–	–	IC50 [7]: Not Active
Cc1ccc(S(=O)(=O)Nc2ccc(N3CCOCC3)c3cccnc23)cc1	–	–	inactive	inactive	–	–	IC50 [7]: Not Active
O=S(=O)(Nc1ccc(-c2cccnc2)c2cccnc12)C1CC1	–	–	inactive	inactive	–	–	–
O=S(=O)(Nc1ccc(-c2cccnc2)c2cccnc12)c1cccnc1	0.91	0.4	Active	Active	1.49	1.05	–
COc1ccc(S(=O)(=O)Nc2ccc(-c3ccccc3)c3cccnc23)cc1	–	–	Active	Active	–	–	–
Cc1ccc(S(=O)(=O)Nc2ccc(-c3cc4ccccc4s3)c3cccnc23)cc1	0.39	0.15	Active	Active	–	–	IC50 ([2]; a549): Not Active; IC50 ([4]; nci-h1299): Not Active
CS(=O)(=O)Nc1ccc(-c2ccccc2)c2cccnc12	–	–	Active	Active	–	–	–
Cc1ccc(S(=O)(=O)Nc2ccc(-c3ccccc3)c3cccnc23)cc1	2.36	1.64	Active	Active	7.22	8.56	–
Cc1ccc(S(=O)(=O)Nc2ccc(Br)c3cccnc23)cc1	–	–	Active	Active	–	–	–
Cc1ccc(S(=O)(=O)Nc2ccc(Br)c3ccccc23)cc1	48.5	27.4	–	–	–	–	IC50 ([2]; a549): Not Active; IC50 ([4]; nci-h1299): Not Active; inhibition [7]: inactive
Cc1ccc(S(=O)(=O)Nc2ccc(-c3ccsc3)c3cccnc23)cc1	2.36	0.64	Active	Active	4.63	4.09	–
COc1ccc(S(=O)(=O)Nc2ccc(-c3ccncc3)c3cccnc23)cc1	5.24	1.07	Active	Active	–	–	IC50 ([2]; a549): Not Active; IC50 ([4]; nci-h1299): Not Active; IC50 ([7]; read-out: IC50): 2.45 µM
COc1ccc(Oc2cc(NS(=O)(=O)c3ccc(C)cc3)c3ncccc3c2)cc1	4.09	0.74	inactive	inactive	16.9	11.3	–
Cc1ccc(S(=O)(=O)N(C)c2cccc3cccnc23)cc1	–	–	–	–	–	–	inhibition [7]: inactive
